Measured values taken from the supplement of paper PMC10307832.

Key:
Assay in all cases: relative viability (nuclei count vs DMSO), 5 days (fraction); higher = more cells survive
[1] = system: LCLC-103H
In short: (§1)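 Each reported value is a median over duplicate plates. It expresses relative viability: treated-well nuclei count divided by vehicle-well nuclei count. Lung cancer cell lines in 1536-well plates were dosed by pin tool a day after seeding, alone with one drug or with a fixed anchor-drug dose plus five library-drug doses (not always all listed) in √10 steps, and nuclei were counted after 5 days.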

[2] = system: NCI-H1623
In short: as §1

[3] = system: NCI-H1648
In short: as §1

[4] = system: NCI-H522
In short: as §1

[5] = system: NCI-H1355
In short: as §1

[6] = system: NCI-H520
In short: as §1

C=C1C(=O)O[C@@H](CCCCCCCC)[C@@H]1C(=O)O [C-75] + COc1cccc2cc(-c3nc([C@H]4CC[C@H](C(=O)O)CC4)n4ncnc(N)c34)[nH]c12 [OSI-027] (partner 0.5 µM)
relative viability ([1]; first compound 0.08 µM): 0.471 | relative viability ([1]; first compound 0.253 µM): 0.495 | relative viability ([1]; first compound 0.8 µM): 0.432 | relative viability ([1]; first compound 2.53 µM): 0.337 | relative viability ([1]; first compound 8 µM): 0.472 | relative viability ([2]; first compound 0.08 µM): 0.463 | relative viability ([2]; first compound 0.253 µM): 0.503 | relative viability ([2]; first compound 0.8 µM): 0.416 | relative viability ([2]; first compound 2.53 µM): 0.38 | relative viability ([2]; first compound 8 µM): 0.457 | relative viability ([3]; first compound 0.08 µM): 0.238 | relative viability ([3]; first compound 0.253 µM): 0.301 | relative viability ([3]; first compound 0.8 µM): 0.276 | relative viability ([3]; first compound 8 µM): 0.267 | relative viability ([4]; first compound 0.08 µM): 0.744 | relative viability ([4]; first compound 0.253 µM): 0.819 | relative viability ([4]; first compound 0.8 µM): 0.753 | relative viability ([4]; first compound 8 µM): 0.641 | relative viability ([5]; first compound 0.08 µM): 0.49 | relative viability ([5]; first compound 0.253 µM): 0.441 | relative viability ([5]; first compound 0.8 µM): 0.391 | relative viability ([5]; first compound 2.53 µM): 0.348 | relative viability ([5]; first compound 8 µM): 0.5 | relative viability ([6]; first compound 0.08 µM): 0.237 | relative viability ([6]; first compound 0.253 µM): 0.338 | relative viability ([6]; first compound 0.8 µM): 0.242 | relative viability ([6]; first compound 2.53 µM): 0.221 | relative viability ([6]; first compound 8 µM): 0.294

C=C1C(=O)O[C@@H](CCCCCCCC)[C@@H]1C(=O)O [C-75] + Cc1cc(Nc2cc(N3CCN(C)CC3)nc(Sc3ccc(NC(=O)C4CC4)cc3)n2)n[nH]1 [Tozasertib] (partner 0.1 µM)
relative viability ([1]; first compound 0.08 µM): 0.597 | relative viability ([1]; first compound 0.253 µM): 0.543 | relative viability ([1]; first compound 0.8 µM): 0.428 | relative viability ([1]; first compound 2.53 µM): 0.514 | relative viability ([1]; first compound 8 µM): 0.406 | relative viability ([2]; first compound 0.08 µM): 0.471 | relative viability ([2]; first compound 0.253 µM): 0.417 | relative viability ([2]; first compound 0.8 µM): 0.477 | relative viability ([2]; first compound 2.53 µM): 0.419 | relative viability ([2]; first compound 8 µM): 0.461 | relative viability ([3]; first compound 0.08 µM): 0.387 | relative viability ([3]; first compound 0.253 µM): 1.26 | relative viability ([3]; first compound 0.8 µM): 0.465 | relative viability ([3]; first compound 8 µM): 0.468 | relative viability ([4]; first compound 0.08 µM): 0.585 | relative viability ([4]; first compound 0.253 µM): 0.598 | relative viability ([4]; first compound 0.8 µM): 0.489 | relative viability ([4]; first compound 8 µM): 0.497 | relative viability ([5]; first compound 0.08 µM): 0.595 | relative viability ([5]; first compound 0.253 µM): 0.579 | relative viability ([5]; first compound 0.8 µM): 0.522 | relative viability ([5]; first compound 2.53 µM): 0.554 | relative viability ([5]; first compound 8 µM): 0.517 | relative viability ([6]; first compound 0.08 µM): 0.428 | relative viability ([6]; first compound 0.253 µM): 0.393 | relative viability ([6]; first compound 0.8 µM): 0.395 | relative viability ([6]; first compound 2.53 µM): 0.295 | relative viability ([6]; first compound 8 µM): 0.46

CC1(C)CCC(c2ccc(Cl)cc2)=C(CN2CCN(c3ccc(C(=O)NS(=O)(=O)c4ccc(N[C@H](CCN5CCOCC5)CSc5ccccc5)c(S(=O)(=O)C(F)(F)F)c4)cc3)CC2)C1 [Navitoclax] + Cc1cc(Nc2cc(N3CCN(C)CC3)nc(Sc3ccc(NC(=O)C4CC4)cc3)n2)n[nH]1 [Tozasertib] (partner 0.1 µM)
relative viability ([1]; first compound 0.005 µM): 0.505 | relative viability ([1]; first compound 0.01581 µM): 0.516 | relative viability ([1]; first compound 0.05 µM): 0.442 | relative viability ([1]; first compound 0.1581 µM): 0.404 | relative viability ([1]; first compound 0.5 µM): 0.466 | relative viability ([2]; first compound 0.005 µM): 0.406 | relative viability ([2]; first compound 0.01581 µM): 0.405 | relative viability ([2]; first compound 0.05 µM): 0.415 | relative viability ([2]; first compound 0.1581 µM): 0.464 | relative viability ([2]; first compound 0.5 µM): 0.4 | relative viability ([3]; first compound 0.005 µM): 0.609 | relative viability ([3]; first compound 0.01581 µM): 0.506 | relative viability ([3]; first compound 0.1581 µM): 0.459 | relative viability ([3]; first compound 0.5 µM): 0.575 | relative viability ([4]; first compound 0.005 µM): 0.574 | relative viability ([4]; first compound 0.01581 µM): 0.535 | relative viability ([4]; first compound 0.05 µM): 0.607 | relative viability ([4]; first compound 0.1581 µM): 0.631 | relative viability ([4]; first compound 0.5 µM): 0.669 | relative viability ([5]; first compound 0.005 µM): 0.549 | relative viability ([5]; first compound 0.01581 µM): 0.589 | relative viability ([5]; first compound 0.05 µM): 0.456 | relative viability ([5]; first compound 0.1581 µM): 0.585 | relative viability ([5]; first compound 0.5 µM): 0.518 | relative viability ([6]; first compound 0.005 µM): 0.511 | relative viability ([6]; first compound 0.01581 µM): 0.408 | relative viability ([6]; first compound 0.05 µM): 0.419 | relative viability ([6]; first compound 0.1581 µM): 0.376 | relative viability ([6]; first compound 0.5 µM): 0.392

NC(=O)Nc1cc(-c2cccc(F)c2)sc1C(=O)N[C@H]1CCCNC1 [AZD7762] + COc1cccc2cc(-c3nc([C@H]4CC[C@H](C(=O)O)CC4)n4ncnc(N)c34)[nH]c12 [OSI-027] (partner 0.5 µM)
relative viability ([1]; first compound 0.01 µM): 0.451 | relative viability ([1]; first compound 0.03162 µM): 0.471 | relative viability ([1]; first compound 0.1 µM): 0.427 | relative viability ([1]; first compound 0.3162 µM): 0.392 | relative viability ([1]; first compound 1 µM): 0.341 | relative viability ([2]; first compound 0.01 µM): 0.44 | relative viability ([2]; first compound 0.03162 µM): 0.464 | relative viability ([2]; first compound 0.1 µM): 0.414 | relative viability ([2]; first compound 0.3162 µM): 0.424 | relative viability ([2]; first compound 1 µM): 0.378 | relative viability ([3]; first compound 0.01 µM): 0.244 | relative viability ([3]; first compound 0.03162 µM): 0.257 | relative viability ([3]; first compound 0.1 µM): 0.27 | relative viability ([3]; first compound 0.3162 µM): 0.253 | relative viability ([3]; first compound 1 µM): 0.294 | relative viability ([4]; first compound 0.01 µM): 0.711 | relative viability ([4]; first compound 0.03162 µM): 0.683 | relative viability ([4]; first compound 0.1 µM): 0.696 | relative viability ([4]; first compound 0.3162 µM): 0.755 | relative viability ([4]; first compound 1 µM): 0.807 | relative viability ([5]; first compound 0.01 µM): 0.389 | relative viability ([5]; first compound 0.03162 µM): 0.489 | relative viability ([5]; first compound 0.1 µM): 0.515 | relative viability ([5]; first compound 0.3162 µM): 0.443 | relative viability ([5]; first compound 1 µM): 0.418 | relative viability ([6]; first compound 0.01 µM): 0.294 | relative viability ([6]; first compound 0.03162 µM): 0.246 | relative viability ([6]; first compound 0.1 µM): 0.246 | relative viability ([6]; first compound 0.3162 µM): 0.243 | relative viability ([6]; first compound 1 µM): 0.16

NC(=O)Nc1cc(-c2cccc(F)c2)sc1C(=O)N[C@H]1CCCNC1 [AZD7762] + Cc1cc(Nc2cc(N3CCN(C)CC3)nc(Sc3ccc(NC(=O)C4CC4)cc3)n2)n[nH]1 [Tozasertib] (partner 0.1 µM)
relative viability ([1]; first compound 0.01 µM): 0.522 | relative viability ([1]; first compound 0.03162 µM): 0.442 | relative viability ([1]; first compound 0.1 µM): 0.524 | relative viability ([1]; first compound 0.3162 µM): 0.516 | relative viability ([1]; first compound 1 µM): 0.323 | relative viability ([2]; first compound 0.01 µM): 0.4 | relative viability ([2]; first compound 0.03162 µM): 0.43 | relative viability ([2]; first compound 0.1 µM): 0.44 | relative viability ([2]; first compound 0.3162 µM): 0.441 | relative viability ([2]; first compound 1 µM): 0.39 | relative viability ([3]; first compound 0.01 µM): 0.527 | relative viability ([3]; first compound 0.03162 µM): 0.552 | relative viability ([3]; first compound 0.1 µM): 0.36 | relative viability ([3]; first compound 0.3162 µM): 0.451 | relative viability ([3]; first compound 1 µM): 0.425 | relative viability ([4]; first compound 0.01 µM): 0.536 | relative viability ([4]; first compound 0.03162 µM): 0.657 | relative viability ([4]; first compound 0.1 µM): 0.621 | relative viability ([4]; first compound 0.3162 µM): 0.566 | relative viability ([4]; first compound 1 µM): 0.535 | relative viability ([5]; first compound 0.01 µM): 0.621 | relative viability ([5]; first compound 0.03162 µM): 0.693 | relative viability ([5]; first compound 0.1 µM): 0.566 | relative viability ([5]; first compound 0.3162 µM): 0.666 | relative viability ([5]; first compound 1 µM): 0.532 | relative viability ([6]; first compound 0.01 µM): 0.493 | relative viability ([6]; first compound 0.03162 µM): 0.36 | relative viability ([6]; first compound 0.1 µM): 0.425 | relative viability ([6]; first compound 0.3162 µM): 0.39 | relative viability ([6]; first compound 1 µM): 0.275

Oc1nc(-c2ccc(C(F)(F)F)cc2)nc2c1CSCC2 [XAV939] + COc1cccc2cc(-c3nc([C@H]4CC[C@H](C(=O)O)CC4)n4ncnc(N)c34)[nH]c12 [OSI-027] (partner 0.5 µM)
relative viability ([1]; first compound 0.08 µM): 0.534 | relative viability ([1]; first compound 0.253 µM): 0.443 | relative viability ([1]; first compound 0.8 µM): 0.463 | relative viability ([1]; first compound 2.53 µM): 0.432 | relative viability ([2]; first compound 0.08 µM): 0.364 | relative viability ([2]; first compound 0.253 µM): 0.386 | relative viability ([2]; first compound 0.8 µM): 0.318 | relative viability ([2]; first compound 2.53 µM): 0.4 | relative viability ([3]; first compound 0.08 µM): 0.273 | relative viability ([3]; first compound 0.8 µM): 0.236 | relative viability ([3]; first compound 2.53 µM): 0.225 | relative viability ([4]; first compound 0.08 µM): 0.564 | relative viability ([4]; first compound 0.253 µM): 0.696 | relative viability ([4]; first compound 0.8 µM): 0.68 | relative viability ([4]; first compound 2.53 µM): 0.643 | relative viability ([5]; first compound 0.08 µM): 0.396 | relative viability ([5]; first compound 0.253 µM): 0.353 | relative viability ([5]; first compound 0.8 µM): 0.368 | relative viability ([5]; first compound 2.53 µM): 0.274 | relative viability ([6]; first compound 0.08 µM): 0.262 | relative viability ([6]; first compound 0.253 µM): 0.225 | relative viability ([6]; first compound 0.8 µM): 0.224 | relative viability ([6]; first compound 2.53 µM): 0.225
